Data published in PMC12152872, “Molecular glue binding behavior of phosphoantigens to alpaca butyrophilins” (The Journal of Biological Chemistry, 2025).

Legend:
Type in all cases: binding
[1] = target: T1, BTN3A1 and BTN2A1 B30.2 domains (Homo sapiens, UniProt O00481+Q7KYR7); test: ITC, DMASPP titrated into mixture of BTN2A1 and BTN3A1 B30.[…] (first titration)
T1 construct: BTN2A1 B30.2 in pET28a, Ni-NTA and DEAE; BTN3A1 B30.2 prepared as VpBTN3 B30.2; printed PDB ids are of BTN3A1 B30.2 only

[2] = target: T2, VpBTN2 B30.2 and full-length VpBTN3 B30.2 domain (Vicugna pacos, UniProt A0A345DF50+A0A6J0B3M7); test: ITC, VpBTN2 B30.[…] titrated into preformed full-length VpBTN3 B30.2-DMASPP complex (second titration); conditions: 25 °C, 25 mM Hepes pH 7.5, 150 mM NaCl; molecular glue; protein-protein KD in presence of DMASPP
T2 construct: gene Btn3; E. coli

[3] = target: T3, VpBTN2 B30.2 and VpBTN3 B30.2 ΔC domains (Vicugna pacos, UniProt A0A345DF50+A0A6J0B3M7); test: ITC, DMASPP titrated into mixture of VpBTN2 and VpBTN3 B30.[…] ΔC (first titration)
T3 construct: gene Btn3; mixture of VpBTN2 B30.2 (residues 311-535) and VpBTN3 B30.2 ΔC (residues 323-513), mixed 2:1; E. coli BL21(DE3), His tags removed by TEV; VpBTN2 site R475, T508, V509

VpBTN3 B30.2 ΔC = target: T4, VpBTN3 B30.2 ΔC (Vicugna pacos, UniProt A0A345DF50); test: ITC; crystal structure
T4 construct: gene Btn3; intracellular B30.2 domain, residues 323-513, C-terminal loop truncated; pET32a, E. coli BL21(DE3); N-terminal His tag removed by TEV; pocket H381, H408, W421, K423, R442, R448, R499

[4] = target: T1, BTN3A1 and BTN2A1 B30.2 domains; test: ITC, second titration (BTN2A1 B30.[…] into BTN3A1 B30.2-DMASPP complex); conditions: 25 °C, 25 mM Hepes pH 7.5, 150 mM NaCl; molecular glue; protein-protein KD in presence of DMASPP
[5] = target: T3, VpBTN2 B30.2 and VpBTN3 B30.2 ΔC domains; test: ITC, VpBTN2 B30.[…] titrated into preformed VpBTN3 B30.[…] ΔC-DMASPP complex (second titration); conditions: 25 °C, 25 mM Hepes pH 7.5, 150 mM NaCl; molecular glue; protein-protein KD in presence of DMASPP

T3 sequence (A0A345DF50 323-513, stated change not applied): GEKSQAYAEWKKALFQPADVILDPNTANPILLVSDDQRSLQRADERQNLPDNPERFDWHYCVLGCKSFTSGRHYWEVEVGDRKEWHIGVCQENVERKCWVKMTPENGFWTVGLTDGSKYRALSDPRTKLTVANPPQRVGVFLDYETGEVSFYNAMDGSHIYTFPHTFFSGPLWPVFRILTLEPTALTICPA
T3 sequence (A0A6J0B3M7 311-535, stated change not applied): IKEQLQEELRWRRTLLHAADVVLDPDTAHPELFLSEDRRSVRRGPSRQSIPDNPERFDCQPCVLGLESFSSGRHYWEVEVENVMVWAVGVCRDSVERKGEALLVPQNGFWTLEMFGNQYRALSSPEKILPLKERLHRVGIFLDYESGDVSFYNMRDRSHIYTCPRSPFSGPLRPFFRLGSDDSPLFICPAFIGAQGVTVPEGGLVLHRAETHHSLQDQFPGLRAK
T1 sequence (O00481 328-513): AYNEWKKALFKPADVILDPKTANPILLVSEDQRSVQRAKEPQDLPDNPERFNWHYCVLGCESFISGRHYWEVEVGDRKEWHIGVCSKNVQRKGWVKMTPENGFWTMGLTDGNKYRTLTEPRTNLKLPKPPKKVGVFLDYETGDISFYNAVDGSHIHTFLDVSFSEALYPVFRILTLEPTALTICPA
T1 sequence (Q7KYR7 310-506 limits assumed): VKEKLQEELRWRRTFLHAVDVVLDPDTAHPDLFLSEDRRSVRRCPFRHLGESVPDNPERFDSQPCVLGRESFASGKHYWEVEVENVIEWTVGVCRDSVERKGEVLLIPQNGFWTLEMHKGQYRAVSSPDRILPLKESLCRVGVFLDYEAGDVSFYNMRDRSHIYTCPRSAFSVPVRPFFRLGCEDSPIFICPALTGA
T2 sequence (A0A345DF50 323-557 limits assumed): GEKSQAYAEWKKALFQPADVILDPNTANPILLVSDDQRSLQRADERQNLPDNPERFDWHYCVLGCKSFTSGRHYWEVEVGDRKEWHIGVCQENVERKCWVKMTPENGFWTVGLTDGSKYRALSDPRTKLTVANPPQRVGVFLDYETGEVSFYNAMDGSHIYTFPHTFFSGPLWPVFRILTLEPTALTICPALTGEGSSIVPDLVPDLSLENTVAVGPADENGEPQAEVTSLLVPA
T2 sequence (A0A6J0B3M7 311-535): as the sequence (A0A6J0B3M7 311-535, stated change not applied) above
T4 sequence (A0A345DF50 323-513, stated change not applied): as the sequence (A0A345DF50 323-513, stated change not applied) above

Compound: CC(C)=CCSP(=O)(O)OP(=O)(O)O [DMASPP]
- Kd [1]: 8.19 µM
- KD [2]: 15.2 µM
- Kd [3]: 4.34 µM
- Kd (VpBTN3 B30.2 ΔC): 44.7 µM
- KD [4]: 18.8 µM
- KD [5]: 22.8 µM
